These results are taken from US20190388421A1, “NOVEL COMPOUNDS AND PHARMACEUTICAL COMPOSITIONS THEREOF FOR THE TREATMENT OF FIBROSIS” (Galapagos NV, priority 2016, published 2019).

One test has as its target T1, S1PR2 (Homo sapiens, UniProt O95136).
T1 construct: expressed in transfected cells
Briefly: GTP-γS binding assay ([35S]GTPγS, S1P at EC80, S1PR2 membranes). The format is biochemical. To be noted: membranes from stable cell line over expressing S1PR2, read-out: S1PR2 EC. In outline:
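Compounds tested against S1P at its EC80 on membranes (2.5 μg/well) from a stable S1PR2-overexpressing line, pre-incubated with 1 μM GDP 15 min at 4 °C. Buffer: 20 mM Tris pH 7.5, 10 mM MgCl2, 100 mM NaCl, 0.1% fatty-acid-free BSA, 50 ug/ml saponin. Incubated 4 h at room temperature; [35S]GTPγS binding read by WGA SPA beads.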

The target in test [1] is T2, human GPCR sphingosine 1-phosphate receptor 5 (S1PR5) (Homo sapiens, UniProt Q9H228).
T2 construct: host or cells: CHO
The test can be described thus: S1PR5 selectivity assay (Ca2+ flux, antagonist, S1PR5 specific agonist trigger). The format is cell-based. As to conditions: S1P5 antagonist EC50, CHO cells overexpressing human S1PR5 and Gq protein. In outline:
(§1)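 CHO cells stably overexpressing human S1PR1 or S1PR5 with Gq were preincubated with compound 15 min at 37 °C, then stimulated with S1P at EC80 (S1PR1) or an S1PR5-specific agonist (S1PR5). Ca2+ fluorescence was read for 3 min; 10-point 1/3 dilutions from 20 μM final, normalized to vehicle and EC80 trigger, gave EC50.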

The target of test [2] is T3, human GPCR sphingosine 1-phosphate receptor 1 (S1PR1) (Homo sapiens, UniProt P21453).
T3 construct: host or cells: CHO
Briefly: S1PR1 selectivity assay (Ca2+ flux, antagonist). The format is cell-based. As to conditions: S1P1 antagonist EC50, CHO cells overexpressing human S1PR1 and Gq protein. In outline: as §1
On the technique in general: Calcium assays in cells follow changes in intracellular calcium, usually with a dye or a luminescent sensor.

Test [3] has as its system HFL-1 cells. The test can be described thus: IL8 assay (S1P induced IL-8 production). It counts as cell-based. To be noted: Homo sapiens, HFL1; S1P (1 μM) induced IL-8, HFL-1 cells, without HSA. Here is the method: (§2) S1P is able to induce cytokines such as IL-8 in a process that is S1PR2 dependent (O'Sullivan et al, 2014; Bruennert et al, 2015). This assay is designed to test inhibitory activity of compounds on S1P induced IL-8 on HFL-1 cells, a human fetal lung fibroblast cell line.
Human Fetal Lung cells (HFL-1) are seeded in 96 well plates in growth medium (F12K+10% heat inactivated FBS+1% Pen/strep). After overnight incubation at 37° C., 5% CO2 cells are refreshed with starvation medium without HSA (F12K+1% FBS+1% Pen/strep). On day three, compounds are added (10 point serial dilution, 30 μM highest concentration, ⅓ dilution, 0.3% DMSO final) and plates are incubated for one hour at 37° C., 5% CO2. Subsequently S1P at 1 μM final concentration is added and plates are incubated for 16 to 24 hours at 37° C., 5% CO2 after which the supernatant was collected. IL-8 levels in the supernatant are determined with the IL-8 ELISA of R&D systems.

Test [4] relates to HFL-1 cells. The test can be described thus: IL8 assay in the presence of Human Serum Albumin. It counts as cell-based. As to conditions: HFL1, S1P (5 μM) induced IL-8, HFL-1 cells, with 2% HSA, read-out: HSA IL8 EC50. Here is the method:
as §2
To evaluate the influence of plasma protein binding of Sip as well as compound, the S1P induced IL-8 levels were evaluated in presence of 2% Human Serum Albumin (HSA, equivalent to 40% human serum). By adding 2% HSA, which affects both the activity of the compounds as well as the S1P potency, the physiological condition are reproduced and the shift in potency expected under in vivo serum conditions can be measured.
Human Fetal Lung cells (HFL-1) are seeded in 96 well plates in growth medium (F12K+10% heat inactivated FBS+1% Pen/strep). After overnight incubation at 37° C., 5% CO2 cells are refreshed with starvation medium with HSA (F12K+1% FBS+1% Pen/strep+1.95% HSA). On day three, compounds are added (10 point serial dilution, 30 μM highest concentration, 1/3 dilution, 0.3% DMSO final) and plates are incubated for 1 h at 37° C., 5% CO2. Subsequently S1P at 5 μM final concentration is added and plates are incubated for 16 to 24 h at 37° C., 5% CO2 after which the supernatant was collected. IL-8 levels in the supernatant are determined with the IL-8 ELISA of R&D systems.

Test [5] has as its target T4, human GPCR sphingosine 1-phosphate receptor 2 (S1PR2) (Homo sapiens, UniProt O95136).
T4 construct: host or cells: CHO
The test can be described thus: S1P2 antagonist assay (Ca2+ flux, S1P at EC80). As to conditions: CHO-S1PR2 cells, highest concentration 20 μM. The format is cell-based. The gist of the method:
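CHO cells stably overexpressing human S1PR2, serum-starved 1 h and loaded with Fluo8 dye, were read for 3 min after compound addition, then stimulated with S1P at EC80 after 15 min at 37 °C. Top concentration 20 μM in a 10-point 1/3 series; Ca2+ fluorescence ratio normalized to vehicle and S1P EC80, giving EC50.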

Where only a bound is given, the exact number is not on record here.

T1 sequence (O95136 whole entry): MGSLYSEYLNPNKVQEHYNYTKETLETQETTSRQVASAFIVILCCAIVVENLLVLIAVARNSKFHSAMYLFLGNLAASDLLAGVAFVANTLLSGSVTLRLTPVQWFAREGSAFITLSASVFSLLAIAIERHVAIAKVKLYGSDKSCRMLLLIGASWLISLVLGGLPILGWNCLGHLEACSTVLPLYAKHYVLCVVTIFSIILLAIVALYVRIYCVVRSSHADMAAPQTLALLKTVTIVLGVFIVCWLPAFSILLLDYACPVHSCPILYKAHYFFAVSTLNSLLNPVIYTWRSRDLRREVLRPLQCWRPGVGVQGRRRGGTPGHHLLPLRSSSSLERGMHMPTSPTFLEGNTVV
T4 sequence (O95136 whole entry): as above
T3 sequence (P21453 whole entry): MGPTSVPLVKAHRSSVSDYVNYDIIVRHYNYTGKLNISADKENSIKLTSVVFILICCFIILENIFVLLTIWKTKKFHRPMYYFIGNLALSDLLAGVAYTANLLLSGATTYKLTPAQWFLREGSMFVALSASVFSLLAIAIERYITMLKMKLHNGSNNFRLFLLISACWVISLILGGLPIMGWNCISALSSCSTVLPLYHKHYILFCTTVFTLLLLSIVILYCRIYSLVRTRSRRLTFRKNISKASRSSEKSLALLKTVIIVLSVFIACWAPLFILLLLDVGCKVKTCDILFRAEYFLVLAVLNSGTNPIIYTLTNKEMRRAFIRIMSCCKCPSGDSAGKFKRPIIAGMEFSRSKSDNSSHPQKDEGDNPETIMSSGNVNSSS
T2 sequence (Q9H228 whole entry): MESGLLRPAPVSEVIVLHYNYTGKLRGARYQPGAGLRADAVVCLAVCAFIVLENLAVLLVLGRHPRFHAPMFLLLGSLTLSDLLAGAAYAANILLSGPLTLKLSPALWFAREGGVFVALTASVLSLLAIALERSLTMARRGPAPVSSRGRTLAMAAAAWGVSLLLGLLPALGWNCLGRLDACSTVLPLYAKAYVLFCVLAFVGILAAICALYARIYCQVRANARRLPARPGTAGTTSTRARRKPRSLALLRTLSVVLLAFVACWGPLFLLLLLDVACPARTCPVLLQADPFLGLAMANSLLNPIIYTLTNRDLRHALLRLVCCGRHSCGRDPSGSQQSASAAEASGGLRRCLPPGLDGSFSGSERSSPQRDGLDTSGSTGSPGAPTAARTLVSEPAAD

In the case of `Cc1cc(CNC(=O)Nc2cc(OC3CCOCC3)nc(C(F)(F)F)c2)nnc1-c1cn(C)nc1C(F)(F)F` [Compound 40, 1-[[5-methyl-6-[1-methyl-3-(trifluoromethyl)pyrazol-4-yl]pyridazin-3-yl]methyl]-3-[2-tetrahydropyran-4-yloxy-6-(trifluoromethyl)-4-pyridyl]urea], the EC50 stood at 1.08 µM on S1PR2; 6.61 µM in test [1]; 5.15 µM in test [2]; 0.142 µM in the test on HFL-1 cells [3]; 0.291 µM in test [5]. For the same molecule, in the test on HFL-1 cells [4], the IC50 came to 3.86 µM.
On to `Cc1cc(CNC(=O)Nc2cc(C#N)nc(OCC(F)F)c2C)nnc1-c1cn(C)nc1C(F)(F)F` [Compound 59, 1-(6-cyano-2-(2,2-difluoroethoxy)-3-methyl-4-pyridyl]-3-[[5-methyl-6-[1-methyl-3-(trifluoromethyl)pyrazol-4-yl]pyridazin-3-yl]methyl]urea], for which the EC50 at S1PR2 came out at 0.0385 µM; in test [1] it was 5.5 µM; in test [2], 6.61 µM; in the test on HFL-1 cells [3], 0.0009 µM; in test [5], 0.0072 µM. Also, in the test with HFL-1 cells [4], the IC50 was determined as 0.116 µM.
Consider `CCOc1nc(C)cc(NC(=O)NCc2cc(C)c(-c3cn(C)nc3C(F)(F)F)nn2)c1C` [Compound 72, 1-(2-ethoxy-3,6-dimethyl-4-pyridyl)-3-[[5-methyl-6-[1-methyl-3-(trifluoromethyl)pyrazol-4-yl]pyridazin-3-yl]methyl]urea], for which the EC50 on S1PR2 is 0.025 µM; in test [1], 11 µM; in test [2], 16.5 µM; in the test on HFL-1 cells [3] it was 0.002 µM; in test [5] it was 0.009 µM. The IC50 in the test on HFL-1 cells [4] is 0.047 µM.
As for `CCOc1cc(NC(=O)NCc2cc(C)c(-c3cn(C)nc3C3CC3)nn2)cc(C(F)(F)F)n1` [Compound 54, 1-[[6-(3-cyclopropyl-1-methyl-pyrazol-4-yl)-5-methyl-pyridazin-3-yl]methyl]-3-[2-ethoxy-6-(trifluoromethyl)-4-pyridyl]urea], the EC50 came to 0.151 µM at S1PR2; 4.58 µM in test [1]; 2.48 µM in test [2]; 0.0116 µM with HFL-1 cells [3]; 0.0153 µM in test [5]. In the test with HFL-1 cells [4], the IC50 came out at 0.278 µM.
As to `CCOc1ncc(NC(=O)NCc2cc(C)c(-c3cn(C)nc3C(F)(F)F)nn2)cc1Cl` [Compound 8, 1-(5-chloro-6-ethoxy-3-pyridyl)-3-[[5-methyl-6-[1-methyl-3-(trifluoromethyl)pyrazol-4-yl]pyridazin-3-yl]methyl]urea], the EC50 on S1PR2 is 0.306 µM; in test [1], at least 19.8 µM; in test [2], at least 19.8 µM; in the test on HFL-1 cells [3], 0.0829 µM; in test [5] it was 0.022 µM. The IC50 with HFL-1 cells [4] came to 0.169 µM.
For the molecule `CCOc1nc(C(F)(F)F)cc(N/C(=N/C#N)NCc2cc(C)c(-c3cn(C)nc3C(F)(F)F)nn2)c1C` [Compound 80, 2-cyano-1-[2-ethoxy-3-methyl-6-(trifluoromethyl)-4-pyridyl]-3-[[5-methyl-6-[1-methyl-3-(trifluoromethyl)pyrazol-4-yl]pyridazin-3-yl]methyl]guanidine], the EC50 is 0.045 µM at S1PR2; 6.61 µM in test [1]; at least 19.8 µM in test [2]; 0.003 µM in the test on HFL-1 cells [3]; 0.013 µM in test [5]. Also, in the test on HFL-1 cells [4], the IC50 is 0.239 µM.
Turning to `CN(C)Cc1cc(CNC(=O)Nc2cc(Cl)nc(OCC(F)F)c2)nnc1-c1cn(C)nc1C(F)(F)F` [Compound 65, 1-[2-chloro-6-(2,2-difluoroethoxy)-4-pyridyl]-3-[[5-(dimethylamino-methyl)-6-[1-methyl-3-(trifluoromethyl)pyrazol-4-yl]pyridazin-3-yl]methyl]urea], the EC50 on S1PR2 is 1.47 µM; in test [1], at least 19.8 µM; in test [2] it was 6.61 µM; in the test on HFL-1 cells [3] it was 2.63 µM; in test [5], 1.62 µM. For the same molecule, the IC50 in the test on HFL-1 cells [4] came to 10 µM.
Turning to `CCOc1nc(C)cc(NC(=O)NCc2cc(C)c(-c3cn(C)nc3C(F)(F)F)nn2)c1Cl` [Compound 71, 1-(3-chloro-2-ethoxy-6-methyl-4-pyridyl)-3-[[5-methyl-6-[1-methyl-3-(trifluoromethyl)pyrazol-4-yl]pyridazin-3-yl]methyl]urea], the EC50 on S1PR2 worked out at 0.025 µM; in test [1], 6.61 µM; in test [2], 6.61 µM; in the test on HFL-1 cells [3], 0.002 µM; in test [5] it was 0.009 µM. The IC50 with HFL-1 cells [4] turned out to be 0.056 µM.
For the molecule `CCOc1cc(NC(=O)NCc2cc(C)c(N3CCC(F)(F)C3)nn2)cc(Cl)n1` [Compound 81, 1-(2-Chloro-6-ethoxy-pyridin-4-yl)-3-[6-(3,3-difluoro-pyrrolidin-1-yl)-5-methyl-pyridazin-3-ylmethyl]-urea], the EC50 is 0.197 µM on S1PR2; 3.77 µM in test [1]; 6.61 µM in test [2]; 0.032 µM with HFL-1 cells [3]; 0.006 µM in test [5]. In addition, the IC50 in the test on HFL-1 cells [4] amounted to 10 µM.
Regarding `CCOc1cc(NC(=O)NCc2cc(C)c(N3CCCc4nn(C)cc43)nn2)cc(C(F)(F)F)n1` [Compound 96, 1-[2-ethoxy-6-(trifluoromethyl)-4-pyridyl]-3-[[5-methyl-6-(2-methyl-6,7-dihydro-5H-pyrazolo[4,3-b]pyridin-4-yl)pyridazin-3-yl]methyl]urea], the EC50 at S1PR2 amounted to 0.302 µM; in test [1], 0.627 µM; in test [2] it was 6.61 µM; in the test with HFL-1 cells [3] it was 0.044 µM; in test [5], 0.033 µM. The IC50 in the test with HFL-1 cells [4] worked out at 2.27 µM.
As for `Cc1cc(CNC(=O)Nc2cc(Cl)nc(OCC(F)F)c2C)nnc1-c1cn(C)nc1C(F)(F)F` [Compound 50, 1-[6-chloro-2-(2,2-difluoroethoxy)-3-methyl-4-pyridyl]-3-[[5-methyl-6-[1-methyl-3-(trifluoromethyl)pyrazol-4-yl]pyridazin-3-yl]methyl]urea], the EC50 at S1PR2 turned out to be 0.0241 µM; in test [1] it was 3.65 µM; in test [2], 5.92 µM; in the test with HFL-1 cells [3] it was 0.0015 µM; in test [5] it was 0.008 µM. For the same molecule, the IC50 in the test with HFL-1 cells [4] is 0.074 µM.
Take `Cc1cc(CNC(=O)Nc2cc(Cl)nc(OCC(F)F)c2)nnc1N1CCC(F)(CO)C1` (stereo not drawn) [Compound 90, 1-[2-chloro-6-(2,2-difluoroethoxy)-4-pyridyl]-3-[[6-[3-fluoro-3-(hydroxymethyl)pyrrolidin-1-yl]-5-methyl-pyridazin-3-yl]methyl]urea]: the EC50 on S1PR2 is 1.17 µM; in test [1], 2.09 µM; in test [2], 6.61 µM; in the test on HFL-1 cells [3] it was 0.244 µM; in test [5], 0.452 µM. Besides, the IC50 in the test with HFL-1 cells [4] was found to be 30 µM.
Turning to `Cc1cc(NC(=O)NCc2cc(C)c(-c3cn(C)nc3C(F)(F)F)nn2)c(C)c(OCC(F)F)n1` [Compound 74, 1-[2-(2,2-difluoroethoxy)-3,6-dimethyl-4-pyridyl]-3-[[5-methyl-6-[1-methyl-3-(trifluoromethyl)pyrazol-4-yl]pyridazin-3-yl]methyl]urea], the EC50 on S1PR2 is 0.081 µM; in test [1], at least 19.8 µM; in test [2], 13 µM; in the test with HFL-1 cells [3], 0.015 µM; in test [5], 0.022 µM. In addition, the IC50 with HFL-1 cells [4] came to 0.118 µM.
